Measurements taken from patent US20190365675A1, “COMPOSITIONS FOR THE PREVENTION AND/OR TREATMENT OF ALCOHOL USE DISORDERS” (SERVICIO ANDALUZ DE SALUD, priority 2016, published 2019).

Tests used:
[1] = system: rats; experiment: Forced swim test during acute ethanol withdrawal; type: in vivo, Wistar rats; conditions: 48 h after last ethanol; OEA pre-treatment during intoxication
Experimental: In this third experiment (n=25), the treatment with ethanol intoxication and pre-treatment with OEA applied in experiment 2 was repeated, and the animals were subjected to elevated plus maze test 24 h and 12 days after the last forced administration of ethanol and to the forced swim test 48 h after the ethanol intoxication protocol. The rats were subjected to the forced swim test two days after the last ethanol force-feeding (see FIG. 1C for the experimental design), and specific behaviors were recorded with a digital video camera for 5 minutes. These same rats were also subjected to the elevated plus maze test equipped with infrared light photography (Panlab, Barcelona, Spain) 1 and 12 days after the last ethanol force-feeding, where the animals were allowed to freely explore the maze for 5 minutes. The tests were performed 3 h after the start of the dark phase.

[2] = system: TLR4; experiment: TLR4 mRNA and protein expression in frontal cortex after ethanol intoxication; type: in vivo, Wistar rats; conditions: 2-4 h after last ethanol, OEA pre-treatment
Experimental: The animals were treated with intragastric (i.g.) ethanol 3 times a day using an i.g. cannula (16G needle, Fisher Scientific, Waltham, Mass., USA), following a protocol based on a slightly modified standard 4-day alcohol intoxication pattern (Bernier et al., 2002a, b) (FIG. 1A). The ethanol doses were administered every 8 h for a total time of 4 days. The rats treated with ethanol received an initial loading dose of 5 g/kg of ethanol in a 30% solution (w/v) and then a maximum maintenance dose of 3 g/kg, which were determined based on blood ethanol levels (BEL). This repeated standard alcohol intoxication paradigm kept BEL intoxication relatively constant in a range of sedation/ataxia (190 to 430 mg/dl, Table 3), according to the 6-point alcohol intoxication behavior scale (Majchrowicz, 1975). The mean dose of ethanol/rat/day (days 1-4) was 7.06 g/kg, similar to other studies (Obernier et al., 2002a, b). […] The autoradiograph was quantified by densitometry (NIH ImageJ® software, National Biosciences, Lincoln, Nebr. USA) and expressed as optical density (OD). […] The quantitative changes in mRNA levels were estimated by means of RT-PCR, carried out in the presence of the SYBR green primer using a 20-L reaction in a Rotor-Gene (Corbett Research®, Mortlake, NSW, Australia). […]

For `CCCCCCCC/C=C\CCCCCCCC(=O)NCCO` [OEA, oleoylethanolamide], the “Forced swim test: immobility” value [1] was “normalizing”, the “Forced swim test: latency” value [1] was “normalizing” and the “Forced swim test: swimming” value [1] was “normalizing”. For the same molecule, the “Ethanol-induced TLR4 protein expression” value [2] was “reduce” and the “Ethanol-induced overexpression of TLR-4 mRNA” value [2] was “reduce”.
